US20250195679A1, “ANTIBODY-DRUG CONJUGATE AND USE THEREOF” (SHANGHAI HUAOTA BIOPHARMACEUTICAL CO., LTD., priority 2022, published 2025)

What was measured:
[1] = system: MDA-MB-231 human breast cancer cells; test: MDA-MB-231 triple-negative breast cancer CDX mouse efficacy model (Example 8); assay type: in vivo, NPG mice; conditions: 5 mg/kg i.p. BIW, 8 doses, FIG. 8
Method: NPG mice were used to establish an MDA-MB-231 triple-negative breast cancer animal model for assaying the efficacy of the test antibodies. The MDA-MB-231 human breast cancer cells used in this example were incubated in an L-15 medium supplemented with 10% FBS in an incubator at 37° C. without CO2. Before continuous cell culturing for ten generations, about 5.0×10^6 MDA-MB-231 cells were suspended in 100 μL of PBS and then mixed uniformly with an equal volume of Matrigel. The mixture was then inoculated by subcutaneous injection into NPG humanized mice on the right side of the back near the axilla, with an inoculation volume of about 200 μL. The mice were anesthetized with 2%-5% isoflurane prior to the inoculation. On the day of inoculation, 1.0×10^7 PBMCs (100 μL) were injected via the tail vein. When the tumors grew to an average size of about 50-80 mm^3, the […] tumor-bearing mice were randomly divided into 7 groups of 6 based on tumor volume and body weight. […] Oleclumab is an anti-CD73 monoclonal antibody developed by AstraZeneca, currently in Phase 2 clinical trials. The amino acid sequence of the heavy chain of 900201 is as set forth in SEQ ID NO. 43, and the amino acid sequence of the light chain of 900201 is as set forth in SEQ ID NO. 44.

[2] = system: BxPC-3 human pancreatic cancer cells; test: BxPC3 CDX pancreatic cancer mouse efficacy model; assay type: in vivo, NPG mice; conditions: 5 mg/kg i.p. BIW, 6 doses, FIG. 7
Method: NPG mice were used to establish a BxPC-3 pancreatic cancer animal model for assaying the efficacy of the test antibodies. The BxPC-3 human pancreatic cancer cells used in this example were incubated in an RPMI-1640 medium supplemented with 10% FBS in an incubator at 37° C. with 5% CO2. Before continuous cell culturing for ten generations, 100 μL of PBS containing about 1×10^7 BxPC-3 cells was mixed uniformly with an equal volume of Matrigel. The mixture was then inoculated by subcutaneous injection into 18 NPG mice on the right side of the back near the axilla, with an inoculation volume of about 200 μL. The mice were anesthetized with 2%-5% isoflurane prior to the inoculation. On the day of inoculation, 1.0×10^7 PBMCs (100 μL) were injected via the tail vein. When the tumors grew to an average size of about 50-80 mm^3, the 18 tumor-bearing mice were randomly divided into 3 groups of 6 based on tumor volume and body weight.
Oleclumab is an anti-CD73 monoclonal antibody developed by AstraZeneca, currently in Phase 2 clinical trials. Uliledlimab is an anti-CD73 monoclonal antibody developed by I-Mab Biopharma, currently in Phase 1 clinical trials. The amino acid sequence of the heavy chain of 900543 is as set forth in SEQ ID NO. 45, and the amino acid sequence of the light chain of 900543 is as set forth in SEQ ID NO. 46. […]

Substance | inhibition of growth of MDA-MB-231 breast cancer [1] | inhibition of growth of BxPC-3 pancreatic cancer [2]
900201: negative control antibody, which does not bind to the CD73 antigen; heavy chain SEQ ID NO. 43, light chain SEQ ID NO. 44 [compound 900201, reference compound] | could not inhibit the tumor growth | 
900543: negative control antibody, which does not bind to the CD73 antigen; heavy chain SEQ ID NO. 45, light chain SEQ ID NO. 46 [compound 900543, reference compound] |  | could not inhibit tumor growth
